Source: patent publication US5616684A, “Cyclic peptides and use thereof” (priority 1991, dated 1997)
Non-standard residues stand in square brackets, D forms with d. Residues, ends and D or L forms follow the SMILES beside them. *: point of attachment. d(aIle) = CC[C@H](C)[C@@H](N)C(=O)O; d2Thi = N[C@H](Cc1cccs1)C(=O)O; dPhg = N[C@@H](C(=O)O)c1ccccc1; Bn = c1ccc(C*)cc1

Key:
[1] = molecular target: T1, endothelin receptor A (ETA) (Sus scrofa, UniProt Q29010); experiment: Assay of Affinity for Receptor (1): Binding Activity on ETA Receptor; design: key to Binding Activity on ET Receptor (R. act.) ETA: relative binding activity; reference cyclic pentapeptide = 1.0; conditions: specific activity, binding activity of cyclo[-D-Glu-Ala-D-aIle-Leu-D-Trp-] taken as 1.0; porcine heart membrane fraction, 125I-labeled endothelin-1, 25° C., 1 hour
T1 construct: A membrane fraction prepared from the porcine heart; from tissue; host or cells: porcine heart membrane fraction
T1 sequence (Q29010 21-427): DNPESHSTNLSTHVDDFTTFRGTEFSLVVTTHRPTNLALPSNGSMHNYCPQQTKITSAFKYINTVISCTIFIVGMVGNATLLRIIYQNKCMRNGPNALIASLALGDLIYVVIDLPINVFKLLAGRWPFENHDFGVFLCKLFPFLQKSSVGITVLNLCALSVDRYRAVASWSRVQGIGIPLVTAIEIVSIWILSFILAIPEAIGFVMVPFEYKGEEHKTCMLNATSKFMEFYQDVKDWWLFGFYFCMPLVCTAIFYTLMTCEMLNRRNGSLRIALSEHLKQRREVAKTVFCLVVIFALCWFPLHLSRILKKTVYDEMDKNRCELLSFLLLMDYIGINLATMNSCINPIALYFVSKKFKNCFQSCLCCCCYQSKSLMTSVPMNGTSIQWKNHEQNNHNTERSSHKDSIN
In short: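 Porcine heart membranes (0.15 mg/ml) incubated with 125I-endothelin-1 and test peptide for 1 h at 25 °C, then diluted with ice-cold buffer and pelleted at 12,000×g; bound radioactivity gamma-counted. Values expressed as specific activity relative to cyclo[-D-Glu-Ala-D-aIle-Leu-D-Trp-] set at 1.0.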

[2] = molecular target: T2, endothelin receptor B (ETB) (Bos taurus, UniProt P28088); experiment: Assay of Affinity for Receptor (2): Binding Activity on ETB Receptor *1; design: key: relative specific activity, Example 8 compound = 100; conditions: specific activity, binding activity of the compound of Example 8 taken as 100; bovine brain membrane fraction, 125I labeled endothelin-1, 25° C., 1 hour
T2 construct: A membrane fraction prepared from the bovine brain; from tissue; host or cells: bovine brain membrane fraction
T2 sequence (P28088 27-441): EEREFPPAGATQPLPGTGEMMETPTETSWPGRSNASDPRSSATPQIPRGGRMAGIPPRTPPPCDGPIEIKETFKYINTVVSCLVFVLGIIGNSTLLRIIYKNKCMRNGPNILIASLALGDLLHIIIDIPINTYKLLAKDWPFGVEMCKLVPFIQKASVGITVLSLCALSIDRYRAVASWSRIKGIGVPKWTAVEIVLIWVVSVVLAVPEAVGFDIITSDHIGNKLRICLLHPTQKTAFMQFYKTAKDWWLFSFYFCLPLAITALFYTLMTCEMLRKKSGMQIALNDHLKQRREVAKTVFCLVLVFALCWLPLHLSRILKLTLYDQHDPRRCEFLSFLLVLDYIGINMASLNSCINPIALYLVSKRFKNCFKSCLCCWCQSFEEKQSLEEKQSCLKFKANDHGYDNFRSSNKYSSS
Description: Assay of Affinity for Receptor (2) . . . Binding Activity on ETB Receptor *1
A membrane fraction prepared from the bovine brain was diluted to 0.15 mg/ml by using a buffer solution for assay, and 100 μl of the resulting suspension of the membrane fraction was poured into each assay tube to use for assay. To this suspension of the membrane fraction was added 2 μl of 5 nM ^125 I labeled endothelin-1 solution. Further, 3 μl of a test peptide solution was added thereto, followed by incubation at a temperature of 25° C. for 1 hour. Then, the resulting suspension was diluted with 900 μl of the buffer solution for assay cooled with ice, and thereafter separated into a supernatant and a precipitate by centrifugation at 12,000×g for 10 minutes. Cell membranes and an endothelin receptor B (ETB) embedded therein were contained in the precipitate, and radioactive iodine-labeled endothelin bound to the receptor was also recovered in the precipitate. Accordingly, the amount of radioactive iodine-labeled endothelin bound to the endothelin receptor B (ETB) was determined by measuring the amount of radioactive iodine contained in the precipitate with a gamma-ray counter. The numerical value of ETB shown in Table 1 is the value of specific activity, taking the binding activity of the compound of Example 8 on the receptor B as 100.

[3] = test system: ETB receptor (guinea pig kidney crude receptor membrane fraction); experiment: ETB Radio Receptor Assay *2; type: binding; conditions: relative activity (Example 8 given as 100), 125I-endothelin-1, 37° C., 90 minutes
In short: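 Crude membranes from guinea pig kidney (2.1 μg protein) incubated with 740 Bq ^125I-endothelin-1 and test sample, 90 min at 37 °C, in 50 mM Tris-HCl pH 7.4 with 0.1 mM PMSF, 1 mM EDTA, 0.2% BSA. Bound ligand separated by fast filtration and counted by gamma counter.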

[4] = amide bond; 18-membered ring; HONB ester (HONB/DCC)/TEA; DMF; 5.0 mM; 4 steps

Row | Compound | Binding Activity on ET Receptor (R. act.) ETA [1] | Binding Activity on ET Receptor (R. act.) ET8 *1 [2] | Binding Activity on ET Receptor (R. act.) ET8 *2 [3] | ring closure, yield after HPLC [4] [%]
1 | CC(C)C[C@@H]1NC(=O)[C@@H](CC(C)C)NC(=O)[C@H](CO)NC(=O)[C@H](Cc2c[nH]c3ccccc23)NC(=O)[C@@H](CC(=O)O)NC(=O)[C@@H](Cc2c[nH]c3ccccc23)NC1=O [Example 37, Cyclo[--D--Asp--Trp--Ser--D--Leu--Leu--D--Trp--]] (cyclo(L[dW][dD]WS[dL])) | 24 | 22 | 18 | –
2 | CC(C)C[C@@H]1NC(=O)[C@@H](CC(C)C)NC(=O)[C@H](COCc2ccccc2)NC(=O)[C@H](Cc2c[nH]c3ccccc23)NC(=O)[C@@H](CC(=O)O)NC(=O)[C@@H](Cc2c[nH]c3ccccc23)NC1=O [Example 38, Cyclo[--D--Asp--Trp--Ser(Bzl)--D--Leu--Leu--D--Trp--]] (cyclo(L[dW][dD]WS(Bn)[dL])) | 13 | 66 | 170 | –
3 | CC(C)C[C@@H]1NC(=O)[C@@H](c2ccccc2)NC(=O)[C@H](CC(=O)O)NC(=O)[C@H](Cc2c[nH]c3ccccc23)NC(=O)[C@@H](CC(=O)O)NC(=O)[C@@H](Cc2c[nH]c3ccccc23)NC1=O [Example 45, Cyclo[--D--Asp--Trp--Asp--D--Phg--Leu--D--Trp--]] (cyclo(D[dPhg]L[dW][dD]W)) | 87 | 74 | 180 | –
4 | CC(C)C[C@@H]1NC(=O)[C@@H](Cc2cccs2)NC(=O)[C@H](CC(=O)O)NC(=O)[C@H](Cc2c[nH]c3ccccc23)NC(=O)[C@@H](CC(=O)O)NC(=O)[C@@H](Cc2c[nH]c3ccccc23)NC1=O [Example 50, Cyclo[--D--Asp--Trp--Asp--D--Thi--Leu--D--Trp--]] (cyclo(D[d2Thi]L[dW][dD]W)) | 4 | 350 | 57 | –
5 | CC[C@H](C)[C@H]1NC(=O)[C@H](CC(=O)O)NC(=O)[C@H](Cc2c[nH]c3ccccc23)NC(=O)[C@@H](CC(=O)O)NC(=O)[C@@H](Cc2c[nH]c3ccccc23)NC(=O)[C@H](CC(C)C)NC1=O [Example 51, Cyclo[--D--Asp--Trp--Asp--D--aIle--Leu--D--Trp--]] (cyclo(D[d(aIle)]L[dW][dD]W)) | 100 | 210 | 290 | –
6 | CC(C)C[C@@H]1NC(=O)[C@@H](C(C)C)NC(=O)[C@H](CC(=O)O)NC(=O)[C@H](Cc2c[nH]c3ccccc23)NC(=O)[C@@H](CC(=O)O)NC(=O)[C@@H](Cc2c[nH]c3ccccc23)NC1=O [Example 52, Cyclo[--D--Asp--Trp--Asp--D--Val--Leu--D--Trp--]] (cyclo(D[dV]L[dW][dD]W)) | 75 | 240 | 100 | –
7 | CC(C)C[C@H]1NC(=O)[C@H](CC(=O)O)NC(=O)[C@H](C)NC(=O)[C@@H](CC(=O)O)NC(=O)[C@@H](Cc2c[nH]c3ccccc23)NC(=O)[C@H](Cc2c[nH]c3ccccc23)NC1=O [Example 58, Cyclo[--D--Asp--Ala--Asp--D--Leu--Trp--D--Trp--]] (cyclo(AD[dL]W[dW][dD])) | 0.7 | 6.7 | 22 | –
8 | CC(C)C[C@@H]1NC(=O)[C@@H](Cc2ccccc2)NC(=O)[C@H](CC(=O)O)NC(=O)[C@H](Cc2c[nH]c3ccccc23)NC(=O)[C@@H](CC(=O)O)NC(=O)[C@@H](Cc2c[nH]c3ccccc23)NC1=O [Example 60, Cyclo[--D--Asp--Trp--Asp--D--Phe--Leu--D--Trp--]] (cyclo(D[dF]L[dW][dD]W)) | 1 | 210 | 44 | –
9 | cyclo[-D-Asp-Glu(Bzl)-Asp-D-Thg(2)-Leu-D-Trp-] [Example 89] | 750 | 45 | 71 | –
10 | cyclo[-D-Asp-Trp-Asp-D-tLeu-Leu-D-Trp-] | – | – | – | 42.8
